The numbers were not newly measured in patent US20260257261A1, “BIOMIMETIC MULTIFUNCTIONAL LIGNOCELLULOSIC DEGRADABLE SORBENT FOR ENVIRONMENTAL REMEDIATION” (THE TEXAS A&M UNIVERSITY SYSTEM, priority 2022, published 2026), which cites them from elsewhere.

For the series the following is noted: previous studies by Mahapatra et al. and others.
Take `O=C(O)C(F)(F)C(F)(F)C(F)(F)C(F)(F)F` [PUPA]: the “toxicity relative to PFOA (C8)” value was “much less toxic”.

As for `O=C(O)C(F)(F)C(F)(F)C(F)(F)F` [PFBA], the “toxicity relative to PFOA (C8)” value is reported as “much less toxic”. Regarding `O=C(O)C(F)(F)C(F)(F)C(F)(F)C(F)(F)C(F)(F)F` [PFHA, perfluorohexanoic acid], the “toxicity relative to PFOA (C8)” value is recorded as “much less toxic”.
